Measured values from ChEMBL document CHEMBL1773000, “Synthesis and biological activity of 22-deoxo-23-oxa analogues of saponin OSW-1” (J Med Chem, 2011).
Active and inactive are the calls of the source. No cut-off for these calls is given here.

Key:
HeLa = assay: Cytotoxicity against human HeLa cells assessed as viable cells after 72 hrs by calcein AM assay; format: functional, cell-based
CCRF-CEM [1] = assay: Cytotoxicity against human CEM cells assessed as viable cells after 72 hrs by calcein AM assay; format: functional, cell-based
HCT-116 = assay: Cytotoxicity against human HCT116 assessed as viable cells after 72 hrs by calcein AM assay; format: functional, cell-based; conditions: HCT-116, 72 h
BJ = assay: Cytotoxicity against human BJ cells assessed as viable cells after 72 hrs by calcein AM assay; format: cell-based
A549 = assay: Cytotoxicity against human A549 cells assessed as viable cells after 72 hrs by calcein AM assay; format: functional, cell-based; conditions: A549, 72 h
HOS = assay: Cytotoxicity against human HOS cells assessed as viable cells after 72 hrs by calcein AM assay; format: functional, cell-based
[2] = Cytotoxicity against human T98 cells assessed as viable cells after 72 hrs by calcein AM assay; format: functional, cell-based; conditions: T98, 72 h
G-361 = assay: Cytotoxicity against human G361 cells assessed as viable cells after 72 hrs by calcein AM assay; format: functional, cell-based; conditions: G-361, 72 h
MCF7 = assay: Cytotoxicity against human MCF7 cells assessed as viable cells after 72 hrs by calcein AM assay; format: functional, cell-based; conditions: MCF7, 72 h
CCRF-CEM [3] = assay: Induction of apoptosis in human CEM cells assessed as increase in amount of DNA at subG1-phase after 24 hrs by flow cytometric analysis relative to untreated control; format: functional, cell-based
CCRF-CEM [4] = assay: Induction of cell cycle arrest in human CEM cells assessed as reduction in accumulation of cells at G0/G1-phase after 24 hrs by flow cytometric analysis relative to untreated control; format: functional, cell-based
CCRF-CEM [5] = assay: Induction of cell cycle arrest in human CEM cells assessed as increase in accumulation of cells at S-phase after 24 hrs by flow cytometric analysis relative to untreated control; format: functional, cell-based
CCRF-CEM [6] = assay: Induction of apoptosis in human CEM cells assessed as increase in Bcl-2 protein level after 24 hrs by Western blot analysis relative to untreated control; format: functional, cell-based
CCRF-CEM [7] = assay: Induction of apoptosis in human CEM cells assessed as increase in caspase-3 activity using Ac-DEVD-AMC as a substrate at 7.5 uM after 24 hrs by fluorescence microplate reader assay relative to untreated control; format: functional
CCRF-CEM [8] = assay: Induction of apoptosis in human CEM cells assessed as increase in caspase-3 activity using Ac-DEVD-AMC as a substrate at 10 uM after 24 hrs by fluorescence microplate reader assay relative to untreated control; format: functional
CCRF-CEM [9] = assay: Induction of apoptosis in human CEM cells assessed as increase in caspase-7 activity using Ac-DEVD-AMC as a substrate at 7.5 uM after 24 hrs by fluorescence microplate reader assay relative to untreated control; format: functional
CCRF-CEM [10] = assay: Induction of apoptosis in human CEM cells assessed as cleavage of PARP at 5 to 10 uM after 24 hrs by Western blot analysis relative to untreated control; format: functional, cell-based
CCRF-CEM [11] = assay: Induction of apoptosis in human CEM cells assessed as effect on […] protein expression at 5 to 10 uM after 24 hrs by Western blot analysis relative to untreated control; format: functional, cell-based
CCRF-CEM [12] = assay: Induction of apoptosis in human CEM cells assessed as increase in caspase-7 activity using Ac-DEVD-AMC as a substrate at 10 uM after 24 hrs by fluorescence microplate reader assay relative to untreated control; format: functional
CCRF-CEM [13] = assay: Induction of cell cycle arrest in human CEM cells assessed as increase in accumulation of cells at G2/M-phase after 24 hrs by flow cytometric analysis relative to untreated control; format: functional, cell-based
CCRF-CEM [14] = assay: Induction of apoptosis in human CEM cells assessed as effect on retinoblastoma protein expression at 5 to 10 uM after 24 hrs by Western blot analysis relative to untreated control; format: functional, cell-based
CCRF-CEM [15] = assay: Induction of apoptosis in human CEM cells assessed as accumulation of caspase-3 after 24 hrs by Western blot analysis relative to untreated control; format: functional, cell-based

CCCCCCCCC(=O)OC[C@@H](C)[C@@]1(O)[C@@H](O[C@@H]2OC[C@H](O)[C@H](O[C@@H]3OC[C@@H](O)[C@H](O)[C@H]3OC(=O)c3ccc(OC)cc3)[C@H]2OC(C)=O)C[C@H]2[C@@H]3CC=C4C[C@@H](O)CC[C@]4(C)[C@H]3CC[C@@]21C
IC50 (HeLa): 47 nM
IC50 (CCRF-CEM [1]): 7.2 nM
IC50 (HCT-116): 4900 nM
IC50 (BJ): 7 nM
IC50 (A549): 590 nM
IC50 (HOS): 2800 nM
IC50 [2]: 11 nM
IC50 (G-361): 15 nM
IC50 (MCF7): 26 nM

CCCCCCCCCCCC(=O)OC[C@@H](C)[C@@]1(O)[C@@H](O[C@@H]2OC[C@H](O)[C@H](O[C@@H]3OC[C@@H](O)[C@H](O)[C@H]3OC(=O)c3ccc(OC)cc3)[C@H]2OC(C)=O)C[C@H]2[C@@H]3CC=C4C[C@@H](O)CC[C@]4(C)[C@H]3CC[C@@]21C
IC50 (HeLa): 42 nM
IC50 (CCRF-CEM [1]): 6.3 nM
IC50 (HCT-116): 2800 nM
IC50 (BJ): 5 nM
IC50 (A549): 930 nM
IC50 (HOS): 1900 nM
IC50 [2]: 7 nM
IC50 (G-361): 8 nM
IC50 (MCF7): 21 nM

COc1ccc(C(=O)O[C@H]2[C@H](O[C@@H]3[C@@H](OC(C)=O)[C@H](O[C@H]4C[C@H]5[C@@H]6CC=C7C[C@@H](O)CC[C@]7(C)[C@H]6CC[C@]5(C)[C@@]4(O)[C@H](C)COC(=O)c4ccccc4)OC[C@@H]3O)OC[C@@H](O)[C@@H]2O)cc1
IC50 (CCRF-CEM [1]): 70 nM
IC50 (BJ): 100 nM
IC50 (A549): 170 nM
IC50 (G-361): 1660 nM
IC50 (MCF7): 700 nM

CCCCCCCCCCCCCCCCCC(=O)OC[C@@H](C)[C@@]1(O)[C@@H](O[C@@H]2OC[C@H](O)[C@H](O[C@@H]3OC[C@@H](O)[C@H](O)[C@H]3OC(=O)c3ccc(OC)cc3)[C@H]2OC(C)=O)C[C@H]2[C@@H]3CC=C4C[C@@H](O)CC[C@]4(C)[C@H]3CC[C@@]21C
IC50 (HeLa): 435 nM
IC50 (CCRF-CEM [1]): 58 nM
IC50 (HCT-116): > 50000 nM
IC50 (BJ): 80 nM
IC50 (A549): 550 nM
IC50 (HOS): > 50000 nM
IC50 [2]: 210 nM
IC50 (G-361): 300 nM
IC50 (MCF7): 195 nM

CC(C)CCC(=O)[C@@H](C)[C@@]1(O)[C@@H](O)C[C@H]2[C@@H]3CC=C4C[C@@H](O)CC[C@]4(C)[C@H]3CC[C@@]21C
IC50 (HeLa): > 50000 nM
IC50 (CCRF-CEM [1]): > 50000 nM
IC50 (HCT-116): > 50000 nM
IC50 (BJ): > 50000 nM
IC50 (A549): > 50000 nM
IC50 (HOS): > 50000 nM
IC50 [2]: > 50000 nM
IC50 (G-361): > 50000 nM
IC50 (MCF7): > 50000 nM

CCCCC(=O)OC[C@@H](C)[C@@]1(O)[C@@H](O[C@@H]2OC[C@H](O)[C@H](O[C@@H]3OC[C@@H](O)[C@H](O)[C@H]3OC(=O)c3ccc(OC)cc3)[C@H]2OC(C)=O)C[C@H]2[C@@H]3CC=C4C[C@@H](O)CC[C@]4(C)[C@H]3CC[C@@]21C
IC50 (HeLa): 170 nM
IC50 (CCRF-CEM [1]): 60 nM
IC50 (BJ): 500 nM
IC50 (A549): 160 nM
IC50 (G-361): 390 nM
IC50 (MCF7): 500 nM

C=CCCCCC(=O)OC[C@@H](C)[C@@]1(O)[C@@H](O[C@@H]2OC[C@H](O)[C@H](O[C@@H]3OC[C@@H](O)[C@H](O)[C@H]3OC(=O)c3ccc(OC)cc3)[C@H]2OC(C)=O)C[C@H]2[C@@H]3CC=C4C[C@@H](O)CC[C@]4(C)[C@H]3CC[C@@]21C
IC50 (HeLa): 61 nM
IC50 (CCRF-CEM [1]): 21 nM
IC50 (HCT-116): 11000 nM
IC50 (BJ): 20 nM
IC50 (A549): 840 nM
IC50 (HOS): 6500 nM
IC50 [2]: 43 nM
IC50 (G-361): 44 nM
IC50 (MCF7): 54 nM

COc1ccc(C(=O)O[C@H]2[C@H](O[C@@H]3[C@@H](OC(C)=O)[C@H](O[C@H]4C[C@H]5[C@@H]6CC=C7C[C@@H](O)CC[C@]7(C)[C@H]6CC[C@]5(C)[C@@]4(O)[C@H](C)C(=O)CCC(C)C)OC[C@@H]3O)OC[C@@H](O)[C@@H]2O)cc1
IC50 (HeLa): 3.4 nM
IC50 (CCRF-CEM [1]): 0.3 nM
IC50 (HCT-116): 8400 nM
IC50 (BJ): 0.2 nM
IC50 (A549): 27 nM
IC50 (HOS): 8200 nM
IC50 [2]: 70 nM
IC50 (G-361): 1000 nM
IC50 (MCF7): 2.4 nM

C/C=C/C(=O)OC[C@@H](C)[C@@]1(O)[C@@H](O[C@@H]2OC[C@H](O)[C@H](O[C@@H]3OC[C@@H](O)[C@H](O)[C@H]3OC(=O)c3ccc(OC)cc3)[C@H]2OC(C)=O)C[C@H]2[C@@H]3CC=C4C[C@@H](O)CC[C@]4(C)[C@H]3CC[C@@]21C
Activity (CCRF-CEM [3]): Active
Activity (CCRF-CEM [4]): Dose-dependent effect
Activity (CCRF-CEM [5]): Dose-dependent effect
IC50 (HeLa): 1940 nM
Activity (CCRF-CEM [6]): Dose-dependent effect
IC50 (CCRF-CEM [1]): 340 nM
fold change (FC) (CCRF-CEM [7]): 3
IC50 (HCT-116): > 50000 nM
fold change (FC) (CCRF-CEM [8]): 3
IC50 (BJ): 230 nM
IC50 (A549): 550 nM
fold change (FC) (CCRF-CEM [9]): 3
IC50 (HOS): > 50000 nM
Activity (CCRF-CEM [10]): Active
Activity (CCRF-CEM [11]): inactive
fold change (FC) (CCRF-CEM [12]): 3
IC50 [2]: 940 nM
Activity (CCRF-CEM [13]): Dose-dependent effect
IC50 (G-361): 890 nM
Activity (CCRF-CEM [14]): inactive
IC50 (MCF7): 840 nM
Activity (CCRF-CEM [15]): Dose-dependent effect

CCCCCCCCCCCCCC(=O)OC[C@@H](C)[C@@]1(O)[C@@H](O[C@@H]2OC[C@H](O)[C@H](O[C@@H]3OC[C@@H](O)[C@H](O)[C@H]3OC(=O)c3ccc(OC)cc3)[C@H]2OC(C)=O)C[C@H]2[C@@H]3CC=C4C[C@@H](O)CC[C@]4(C)[C@H]3CC[C@@]21C
IC50 (HeLa): 67 nM
IC50 (CCRF-CEM [1]): 16 nM
IC50 (HCT-116): 2800 nM
IC50 (BJ): 83 nM
IC50 (A549): 720 nM
IC50 (HOS): 2700 nM
IC50 [2]: 28 nM
IC50 (G-361): 30 nM
IC50 (MCF7): 48 nM

CCCCCCC(=O)OC[C@@H](C)[C@@]1(O)[C@@H](O[C@@H]2OC[C@H](O)[C@H](O[C@@H]3OC[C@@H](O)[C@H](O)[C@H]3OC(=O)c3ccc(OC)cc3)[C@H]2OC(C)=O)C[C@H]2[C@@H]3CC=C4C[C@@H](O)CC[C@]4(C)[C@H]3CC[C@@]21C
IC50 (HeLa): 30 nM
IC50 (CCRF-CEM [1]): 10 nM
IC50 (BJ): 600 nM
IC50 (A549): 20 nM
IC50 (G-361): 1280 nM
IC50 (MCF7): 400 nM

COc1ccc(C(=O)O[C@H]2[C@H](O[C@@H]3[C@@H](OC(C)=O)[C@H](O[C@H]4C[C@H]5[C@@H]6CC=C7C[C@@H](O)CC[C@]7(C)[C@H]6CC[C@]5(C)[C@@]4(O)[C@H](C)COCc4ccccc4)OC[C@@H]3O)OC[C@@H](O)[C@@H]2O)cc1
IC50 (HeLa): 200 nM
IC50 (CCRF-CEM [1]): 20 nM
IC50 (BJ): 300 nM
IC50 (A549): 100 nM
IC50 (G-361): 750 nM
IC50 (MCF7): 600 nM
